Experimental data taken from patent publication US10006009B2, “Codon-optimized gene for mutated shrimp luciferase and method for use thereof” (JNC CORPORATION, priority 2013, dated 2018).
Entries after “also recorded” stand apart in the source; their conditions may differ.

Experiments:
Type in all cases: biochemical
[1] = biological target: T1, codon-optimized nanoKAZ domain protein (Oplophorus gracilirostris, UniProt Q9GV45, A31E/A60N/A81I/F95D/I117V/K70R/L54V/L99Q/M102K/N193R/P142E/Q151K/Q38R/Q45L/V71I/Y165I); test: Substrate specificity and luminescence pattern of nanoKAZ secreted into culture medium; conditions: for Relative luminescence activity integrated (1 min) / Relative maximum luminescence intensity (Imax): culture medium with secreted nanoKAZ as enzyme, coelenterazine = 1.0; for luminescence pattern: FIG. 4
T1 construct: expressed in transfected cells; host or cells: CHO-K1, HeLa or COS-1 cells transfected with pcDNA3-nanoKAZ or pcDNA3-GLsp-nanoKAZ
Experimental: The luminescence reaction was started by addition of 5 μL of the enzyme solution for assay obtained in EXAMPLE 3 to 100 μL of 50 mM Tris-HCl (pH 7.6)-10 mM EDTA (Wako Pure Chemical Industries, Ltd.) containing 0.5 μg of coelenterazine (manufactured by JNC Corp.). The luminescence activity was measured for 60 seconds with a luminometer (manufactured by Atto Co.: AB2200). The maximum intensity of luminescence (Imax) and the luminescence activity integrated for 60 seconds were represented as relative light units (rlu). On the other hand, the luminescence activity of firefly luciferase was used as an internal standard to confirm the efficiency of transfection. Five microliters of the enzyme solution for assay obtained in EXAMPLE 3 was added to 100 μL of the enzyme assay solution (manufactured by Promega Corp.) to start the luminescence reaction. The luminescence activity was measured with a luminometer (manufactured by Atto Co.: AB2200) by integration of luminescence for 10 seconds, which was shown as relative light units (rlu). […] While the transfection efficiencies vary in depending upon cell types, the transfection efficiencies of pcDNA3-nanoKAZ and pcDNA3-GLsp-nanoKAZ are almost the same. The results obtained by measuring the luminescence activity of CHO-K1 cells, HeLa cells and COS-1 cells in culture medium and cells are shown in TABLE 4. Evidently, pcDNA3-nanoKAZ without a signal peptide sequence for secretion was secreted comparably or more efficiently than pcDNA3-GLsp-nanoKAZ.
Coelenterazine analogues used in the substrate specificity experiments were synthesized by the methods described in the respective papers. More specifically, bis-coelenterazine, furimazine and C2-coelenterazine analogue were synthesized by the methods described in Nakamura et al. (1997) Tetrahedron Lett. 38:6405-6406, Hall et al. (2012) ACS Chem. Biol. […] and Inouye et al. (2010) Anal. Biochem. 407: 247-252, respectively. Using as an enzyme solution for coelenterazine or its analogues the culture medium, into which nanoKAZ was secreted as described in EXAMPLE 4, the luminescence activity was measured. Among coelenterazine analogues, the relative maximum intensity of luminescence for h-, bis-, 3me- and 3meo-coelenterazines was at least 10-fold higher and the relative luminescence activity integrated for 1 minute of h- and bis-coelenterazines was at least 10-fold higher, than the others. These luminescence patterns are illustrated in FIG. 4.

[2] = biological target: T2, purified codon-optimized nanoKAZ domain protein (Oplophorus gracilirostris, UniProt Q9GV45, A31E/A60N/A81I/F95D/I117V/K70R/L54V/L99Q/M102K/N193R/P142E/Q151K/Q38R/Q45L/V71I/Y165I); test: Substrate specificity of purified nanoKAZ; conditions: purified nanoKAZ 0.03 μg, 1 μg substrate, coelenterazine = 1.0
T2 construct: histidine tag (6 His) (N, cleaved yes); ZZ domain (N, cleaved yes); made in house; host or cells: Escherichia coli BL21
Experimental: The luminescence reaction was started by addition of 5 μl (0.03 μg) of the purified enzyme solution obtained in EXAMPLE 7 to 100 μl of 50 mM Tris-HCl (pH 7.6)-10 mM EDTA (Wako Pure Chemical Industries, Ltd.) containing 1 μg of coelenterazine (manufactured by JNC) or its analogues. The luminescence activity was measured with a luminometer (manufactured by Atto Co.: AB2200) for 60 seconds. The maximum intensity of luminescence (Imax) and the level integrated for 60 seconds were represented as relative light units (rlu).
The luminescence activity of the purified codon-optimized nanoKAZ domain was measured in accordance with the method described in EXAMPLE 8. […] The results obtained using the purified codon-optimized nanoKAZ as the enzyme solution are in good agreement with the results found by using the culture cell solution as the enzyme solution.

purified nanoKAZ = biological target: T3, purified nanoKAZ (Oplophorus gracilirostris, UniProt Q9GV45, A31E/A60N/A81I/F95D/I117V/K70R/L54V/L99Q/M102K/N193R/P142E/Q151K/Q38R/Q45L/V71I/Y165I); test: Emission spectra by purified nanoKAZ using coelenterazine analogues; conditions: purified nanoKAZ 3 μg, substrate 5 μg, 22-25° C.
T3 construct: histidine tag (6 His) (N, cleaved yes); ZZ domain (N, cleaved yes); made in house; host or cells: Escherichia coli BL21
Experimental: The luminescence reaction was started by addition of a solution of substrate coelenterazine (5 μg/5 μL) in ethanol to a solution of nanoKAZ (3 μg) in 30 mM Tris-HCl (pH 7.6) containing 500 μl of 10 mM EDTA. The luminescence spectra were measured in a quartz cell with an optical path length of 10 mm, with a fluorescence spectrophotometer (manufactured by JASCO Corp., FP-6500) with the excitation light source turned off to correct for the spectra. The measurement conditions used were as follows: band width: 20 nm, response: 0.5 second, scan speed: 2000 nm/min at 22-25° C. The maximum intensity of luminescence (λmax, nm) and half bandwidth (nm) were determined from the luminescence spectra measured, which are summarized in TABLE 8.

T1 sequence (Q9GV45 28-196 with tags or gaps with the stated changes limits assumed): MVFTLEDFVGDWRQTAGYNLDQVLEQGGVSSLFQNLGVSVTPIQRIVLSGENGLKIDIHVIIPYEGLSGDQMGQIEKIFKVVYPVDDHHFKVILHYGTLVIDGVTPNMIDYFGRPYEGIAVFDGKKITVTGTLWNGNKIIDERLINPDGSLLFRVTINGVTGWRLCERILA
T2 sequence (Q9GV45 other isoform, or with tags, fused parts or gaps with the stated changes): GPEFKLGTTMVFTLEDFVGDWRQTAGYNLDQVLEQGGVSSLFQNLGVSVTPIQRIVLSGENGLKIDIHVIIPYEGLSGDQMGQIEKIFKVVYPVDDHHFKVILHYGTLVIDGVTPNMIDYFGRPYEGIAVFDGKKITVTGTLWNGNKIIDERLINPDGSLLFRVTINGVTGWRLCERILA
T3 sequence (Q9GV45 other isoform, or with tags, fused parts or gaps with the stated changes): as above

## Oc1ccc(Cc2nc3c(Cc4ccccc4)nc(-c4ccc(O)cc4)cn3c2O)cc1 [Coelenterazine (CTZ), Coelenterazine]
[1]
  Relative luminescence activity integrated (1 min): 1.0
  Relative maximum luminescence intensity (Imax): 1.0
[2]
  Maximum luminescence intensity (Imax): 1.0
  Relative luminescence activity integrated (1 min): 1.0
Purified nanoKAZ
  Half bandwidth FWHM: 73 nm
  Maximum wavelength λmax: 457 nm

## Cc1cccc(Cc2nc3c(Cc4ccccc4)[nH]c(-c4ccc(O)cc4)cn-3c2=O)c1 [3me-Coelenterazine]
[1]
  Relative luminescence activity integrated (1 min): 7.9
  Relative maximum luminescence intensity (Imax): 11.5
[2]
  Maximum luminescence intensity (Imax): 10.3
  Relative luminescence activity integrated (1 min): 4.2
Purified nanoKAZ
  Half bandwidth FWHM: 73 nm
  Maximum wavelength λmax: 458 nm

## O=c1c(Cc2cccc(O)c2)nc2c(Cc3ccccc3)[nH]c(-c3ccc(O)cc3)cn1-2 [3iso-Coelenterazine]
[1]
  luminescence pattern: did not show the rapid-decay luminescence patterns
  Relative luminescence activity integrated (1 min): 1.4
  Relative maximum luminescence intensity (Imax): 1.5
[2]
  Maximum luminescence intensity (Imax): 1.1
  Relative luminescence activity integrated (1 min): 0.9
Purified nanoKAZ
  Half bandwidth FWHM: 75 nm
  Maximum wavelength λmax: 460 nm

## COc1cccc(Cc2nc3c(Cc4ccccc4)[nH]c(-c4ccc(O)cc4)cn-3c2=O)c1 [3meo-Coelenterazine]
[1]
  Relative luminescence activity integrated (1 min): 8.2
  Relative maximum luminescence intensity (Imax): 11.6
[2]
  Maximum luminescence intensity (Imax): 11.1
  Relative luminescence activity integrated (1 min): 6.6
Purified nanoKAZ
  Half bandwidth FWHM: 71 nm
  Maximum wavelength λmax: 458 nm

## αmeh-Coelenterazine
[1]
  Relative luminescence activity integrated (1 min): 0.1
  Relative maximum luminescence intensity (Imax): 0.1
[2]
  Maximum luminescence intensity (Imax): 0.1
  Relative luminescence activity integrated (1 min): 0.1
Purified nanoKAZ
  Half bandwidth FWHM: 73 nm
  Maximum wavelength λmax: 462 nm

## et-Coelenterazine
[1]
  Relative luminescence activity integrated (1 min): 2.8
  Relative maximum luminescence intensity (Imax): 4.4
[2]
  Maximum luminescence intensity (Imax): 2.4
  Relative luminescence activity integrated (1 min): 0.5
Purified nanoKAZ
  Half bandwidth FWHM: 75 nm
  Maximum wavelength λmax: 458 nm

## COc1ccc(Cc2nc3c(Cc4ccccc4)[nH]c(-c4ccc(O)cc4)cn-3c2=O)cc1 [meo-Coelenterazine]
[1]
  Relative luminescence activity integrated (1 min): 6.3
  Relative maximum luminescence intensity (Imax): 8.9
[2]
  Maximum luminescence intensity (Imax): 7.7
  Relative luminescence activity integrated (1 min): 3.4
Purified nanoKAZ
  Half bandwidth FWHM: 73 nm
  Maximum wavelength λmax: 458 nm

## O=c1c(Cc2ccc(C(F)(F)F)cc2)nc2c(Cc3ccccc3)[nH]c(-c3ccc(O)cc3)cn1-2 [cf3-Coelenterazine]
[1]
  Relative luminescence activity integrated (1 min): 2.4
  Relative maximum luminescence intensity (Imax): 5.2
[2]
  Maximum luminescence intensity (Imax): 4.7
  Relative luminescence activity integrated (1 min): 1.4
Purified nanoKAZ
  Half bandwidth FWHM: 71 nm
  Maximum wavelength λmax: 454 nm

## bis-Coelenterazine
[1]
  luminescence pattern: did not show the rapid-decay luminescence patterns; also recorded: continuous emission without decay of luminescence
  Relative luminescence activity integrated (1 min): 11.5
  Relative maximum luminescence intensity (Imax): 10.8
[1]; higher than that of furimazine
  activity relative to furimazine: at least 2 fold
[2]
  Maximum luminescence intensity (Imax): 13.5
  Relative luminescence activity integrated (1 min): 10.1
Purified nanoKAZ
  Half bandwidth FWHM: 73 nm
  Maximum wavelength λmax: 453 nm

## i-Coelenterazine
[1]
  Relative luminescence activity integrated (1 min): 2.0
  Relative maximum luminescence intensity (Imax): 3.3
[2]
  Maximum luminescence intensity (Imax): 2.9
  Relative luminescence activity integrated (1 min): 0.8
Purified nanoKAZ
  Half bandwidth FWHM: 73 nm
  Maximum wavelength λmax: 457 nm

## Oc1ccc(-c2cn3c(O)c(Cc4ccccc4)nc3c(Cc3ccccc3)n2)cc1 [h-Coelenterazine]
[1]
  Relative luminescence activity integrated (1 min): 11.1
  Relative maximum luminescence intensity (Imax): 17.1
[2]
  Maximum luminescence intensity (Imax): 19.7
  Relative luminescence activity integrated (1 min): 12.5
Purified nanoKAZ
  Half bandwidth FWHM: 71 nm
  Maximum wavelength λmax: 455 nm

## O=c1c(Cc2ccco2)nc2c(Cc3ccccc3)[nH]c(-c3ccccc3)cn1-2 [Furimazine]
[1]
  luminescence pattern: did not show the rapid-decay luminescence patterns
  Relative luminescence activity integrated (1 min): 5.3
  Relative maximum luminescence intensity (Imax): 4.8
[2]
  Maximum luminescence intensity (Imax): 6.8
  Relative luminescence activity integrated (1 min): 5.5
Purified nanoKAZ
  Half bandwidth FWHM: 73 nm
  Maximum wavelength λmax: 452 nm

## n-Coelenterazine
[1]
  Relative luminescence activity integrated (1 min): 3.3
  Relative maximum luminescence intensity (Imax): 4.9
[2]
  Maximum luminescence intensity (Imax): 4.1
  Relative luminescence activity integrated (1 min): 1.2
Purified nanoKAZ
  Half bandwidth FWHM: 71 nm
  Maximum wavelength λmax: 454 nm

## Cc1ccc(Cc2nc3c(Cc4ccccc4)[nH]c(-c4ccc(O)cc4)cn-3c2=O)cc1 [me-Coelenterazine]
[1]
  Relative luminescence activity integrated (1 min): 3.0
  Relative maximum luminescence intensity (Imax): 5.2
[2]
  Maximum luminescence intensity (Imax): 4.2
  Relative luminescence activity integrated (1 min): 1.3
Purified nanoKAZ
  Half bandwidth FWHM: 75 nm
  Maximum wavelength λmax: 460 nm
